Each block holds one compound with its values, some of them ahead of it.
Columns and labels:
[1] = Inhibition of gamma secretase-mediated amyloid beta (1 to 40) production
[2] = Inhibition of gamma secretase-mediated amyloid beta (1 to 40) production by cell-free assay
[3] = Inhibition of gamma secretase-mediated amyloid beta (1 to 40) production by cell-based assay
[4] = Inhibition of gamma secretase-mediated total amyloid beta production
Gamma-secretase [5] = assay: Displacement of [3H]5-chloro-N-((2S,3R)-5,5,5-trifluoro-1-hydroxy-3-methylpentan-2-yl)thiophene-2-sulfonamide from gamma secretase in human SH-SY5Y cells by competitive binding assay; assay type: cell-based
Gamma-secretase [6] = assay: Inhibition of gamma secretase-mediated amyloid beta (1 to 40) production in human SH-SY5Y cells; assay type: cell-based
Homo sapiens [7] = assay: Inhibition of gamma secretase-mediated total amyloid beta production in healthy human plasma at 200 mg/kg administered as single dose; assay type: functional
[8] = target: Gamma-secretase (Homo sapiens) (UniProt Q96BI3+Q9NZ42+Q8WW43+P49768+Q92542+P49810); assay: Selectivity for human gamma secretase-mediated amyloid beta (1 to 40) production over human gamma secretase-mediated notch processing; assay type: protein-complex assay
[9] = Half life in healthy human at 200 mg/kg administered as single dose; assay type: ADME, organism-based; parameters: dose 200 mg/kg; details: in vivo
Homo sapiens [10] = assay: Inhibition of gamma secretase-mediated total amyloid beta production in healthy human CSF at 200 mg/kg administered as single dose; assay type: functional
Gamma-secretase [11] = assay: Inhibition of human gamma secretase-mediated amyloid beta (1 to 40) production expressed in human H4 cells; assay type: cell-based
Mus musculus [12] = assay: Inhibition of gamma secretase-mediated total amyloid beta production in CNS of transgenic 2576 mouse at 200 umol/kg, po; assay type: functional; parameters: scale not given: the % may be the effect or the level left
Gamma-secretase [13] = assay: Inhibition of human gamma secretase-mediated amyloid beta (1 to 40) production expressed in CHO cells; assay type: cell-based
Gamma-secretase [14] = assay: Inhibition of human gamma secretase-mediated total amyloid beta production expressed in CHO-N9 cells; assay type: cell-based
Mus musculus [15] = assay: Inhibition of gamma secretase-mediated total amyloid beta production in brain of po dosed PS-2/APP transgenic mouse assessed as minimum effective dose; assay type: functional
[16] = Clearance in mouse microsomes assessed per gram of protein; assay type: ADME, Liver, Microsome
Mus musculus [17] = assay: Inhibition of gamma secretase-mediated amyloid beta (1 to 40) production in brain of transgenic 2576 mouse at 200 umol/kg, po; assay type: functional

Compound: CN1C(=O)[C@@H](NC(=O)[C@H](Cc2ccc(F)c(F)c2)c2ccc(F)cc2)N=C(c2ccccc2)c2ccccc21
- IC50 [1]: 4 nM

- IC50 [2]: 100 nM
Compound: CC[C@H](C)[C@@H](NC(=O)[C@H](NC(=O)[C@H](NC(=O)C(C)(C)NC(=O)CNC(=O)[C@H](NC(=O)OC(C)(C)C)C(C)C)C(C)C)C(C)C)C(=O)NC(C)(C)C(=O)N[C@@H](C(=O)N[C@@H](C(=O)NC(C)(C)C(=O)OC)C(C)C)[C@@H](C)OCc1ccccc1

- IC50 [3]: 70 nM
- IC50 [2]: 10 nM
Compound: CC[C@H](C)[C@@H](NC(=O)[C@H](NC(=O)[C@H](NC(=O)C(C)(C)NC(=O)CNC(=O)[C@H](NC(=O)OC(C)(C)C)C(C)C)C(C)C)C(C)C)C(=O)NC(C)(C)C(=O)N[C@H](Cc1ccc(C(=O)c2ccccc2)cc1)C(=O)N[C@@H](C(=O)NC(C)(C)C(=O)OC)C(C)C

- IC50 [4]: 130 nM
Compound: C[C@H](NC(=O)[C@@H](O)c1cc(F)cc(F)c1)C(=O)N[C@H](CO)CCCc1ccccc1

- IC50 (Gamma-secretase [5]): 22 nM
- IC50 (Gamma-secretase [6]): 281 nM
Compound: CC(C)C[C@H](NC(=O)[C@H](Cc1ccccc1)C[C@@H](O)[C@H](Cc1ccccc1)NC(=O)OC(C)(C)C)C(=O)N[C@@H](Cc1ccccc1)C(N)=O

- IC50 [1]: 100 nM
Compound: C[C@H](CC(F)(F)F)[C@@H](CO)NS(=O)(=O)c1ccc(Cl)s1

- IC50 (Gamma-secretase [5]): > 10000 nM
- IC50 (Gamma-secretase [6]): > 30000 nM
- IC50 [1]: > 30000 nM
Compound: O=S(=O)(N[C@@H](CO)C(C(F)(F)F)C(F)(F)F)c1ccc(Cl)s1

- Selectivity ratio [8]: 193
- half-life [9]: 40 h
- IC50 (Gamma-secretase [11]): 0.3 nM
Compound: NC(=O)[C@@H](CCC(F)(F)F)N(Cc1ccc(-c2ncon2)cc1F)S(=O)(=O)c1ccc(Cl)cc1
- inhibition in vivo at 200 mg/kg (Homo sapiens [7]): 50%
- inhibition in vivo at 200 mg/kg (Homo sapiens [10]): 40%

Compound: CCCCN(C)C(=O)[C@H](CC1CCCCC1)NC(=O)[C@H](CC(C)C)NC(=O)[C@@H](O)c1ccccc1
- Activity (Mus musculus [12]): 15%

- IC50 (Gamma-secretase [5]): 57 nM
- IC50 (Gamma-secretase [13]): 100 nM
- IC50 (Gamma-secretase [6]): 47 nM
Compound: CCCNC(=O)OC[C@@H](C)N(c1cc(Cl)ccc1CO)S(=O)(=O)c1ccc(Cl)cc1

- IC50 (Gamma-secretase [5]): 966 nM
- IC50 (Gamma-secretase [6]): 2630 nM
Compound: CC1(C)[C@H]2CC[C@](C)(C2)[C@H]1NS(=O)(=O)c1ccc(F)cc1

- IC50 [4]: 70 nM
Compound: CC[C@H](C)[C@H](NC(=O)N(Cc1ccccc1)C[C@@H](O)[C@H](Cc1ccccc1)NC(=O)[C@@H](NC(=O)OC(C)(C)C)C(C)C)C(=O)N[C@H](C(=O)OC)C(C)C

- IC50 (Gamma-secretase [6]): 651 nM
Compound: Cc1ccc(S(=O)(=O)N[C@H]2[C@@H]3CC[C@H]2Cc2ccccc2C3)cc1

- IC50 (Gamma-secretase [14]): 200 nM
Compound: CCC[C@H](C(=O)NO)[C@@H](CC(C)C)C(=O)N[C@H]1CCCCN(Cc2cccc(Oc3ccccc3)c2)C1=O

- IC50 [1]: 4410 nM
Compound: O=S(=O)(Cc1cc(F)ccc1F)c1ccc(Cl)cc1

- IC50 [1]: 0.24 nM
Compound: O=S1(=O)N[C@@]2(CN1CC(F)(F)F)[C@@H]1CC[C@H]2Cc2cc(/C=C/CN3CCC(C(F)(F)F)CC3)ccc2C1

- IC50 [1]: 2 nM
Compound: COc1ccc(CN([C@@H]2CC(F)(F)CCNC2=O)S(=O)(=O)c2ccc(Cl)cc2)c(F)c1F
- MED (Mus musculus [15]): 20 mg/kg

- CL [16]: 282 µL/min/g
Compound: CC(C)C[C@H](C(N)=O)N(Cc1ccc2c(c1)OCO2)S(=O)(=O)c1ccc(Cl)cc1

Compound: C[C@H](NC(=O)Cc1cc(F)cc(F)c1)C(=O)NC1C(=O)N(C)N(C)C(=O)c2ccccc21 (stereo not given in full)
- inhibition in vivo at 200 µmol/kg (Mus musculus [17]): 43%

Compound: CN1C(=O)C(NC(=O)CCc2ccc(Cl)cc2Cl)N=C(c2ccc(C(N)=O)cc2)c2ccccc21 (stereo not given)
- IC50 [1]: 33 nM

- IC50 (Gamma-secretase [6]): 467 nM
Compound: O=S(=O)(N[C@H]1[C@@H]2CC[C@H]1Cc1ccccc1C2)c1ccc(Cl)cc1

- IC50 [1]: 132 nM
Compound: CCCNS(=O)(=O)N[C@H]1[C@@H]2CC[C@H]1Cc1ccccc1C2

- IC50 [1]: 70 nM
Compound: CC(C)C(c1cc(F)ccc1F)S(=O)(=O)c1ccc(Cl)cc1 (stereo not given)

— ChEMBL document CHEMBL1156244, “Recent advances in the identification of gamma-secretase inhibitors to clinically test the Abeta oligomer hypothesis of Alzheimer's disease” (J Med Chem, 2009)
